Laboratory results: the Deep4Chem optical property database

Experiment: solvent given as SMILES

CC1(C)c2ccccc2N(c2ccc(-c3ccc4c(c3)C(=O)c3ccc(-c5ccc(N6c7ccccc7C(C)(C)c7ccccc76)cc5)cc3C4=O)cc2)c2ccccc21
emission maximum (in Cc1ccccc1): 609 nm | emission maximum (in c1ccc2c(c1)c1ccccc1n2-c1ccc(-c2ccc(-n3c4ccccc4c4ccccc43)cc2)cc1): 564 nm

C(=C\c1c[nH]cn1)/c1cc[n+]2ccc(/C=C/c3c[nH]cn3)cc2c1
emission maximum (in CO): 527 nm

CC(C)(C)c1ccc(-c2nc(-c3ccc(C(C)(C)C)cc3)nc(-c3ccc(-n4c5ccccc5c5c6oc7ccccc7c6ccc54)c(C#N)c3)n2)cc1
emission maximum (in C1CCOC1): 450.74 nm

CC(C)(C)c1ccc2c(c1)sc1[n+]2[B-](F)(F)n2c(c3cccc4c(Br)ccc2c43)=N1
emission maximum (in C1CCOC1): 520 nm | emission maximum (in CC#N): 519 nm | emission maximum (in CCCCCC): 516 nm | emission maximum (in Cc1ccccc1): 524 nm | emission maximum (in ClCCl): 552 nm

Nc1ccc2ccc([O-])cc2c1
emission maximum (in O): 407 nm

CCCCN1/C(=C/C=C/C2=[N+](C)c3ccccc3C2(C)C)Oc2ccccc21
emission maximum (in CS(C)=O): 537 nm

COc1ccc(-c2nc(-c3ccc(C#N)cc3)[nH]c2-c2ccc(OC)cc2)cc1
emission maximum (in CO): 473 nm

F[B-]1(F)OC(c2ccc(N3CCCCC3)cc2)=Cc2cccc[n+]21
emission maximum (in ClC(Cl)Cl): 499 nm

CCCCN1C(=O)c2ccc3c4ccc5c6c(ccc(c7ccc(c2c37)C1=O)c64)C(=O)N(CCCC)C5=O
emission maximum (in ClC(Cl)Cl): 533 nm

CC/[NH+]=c1\cc2oc3cc(NCCC(=O)NC(C(=O)OC)c4ccccc4)c4ccccc4c3nc-2cc1C (centres undefined)
emission maximum (in CCO): 644 nm | emission maximum (in O): 657 nm

CC(C)Oc1ccc(C#Cc2ccc3ccc(=O)oc3c2)cc1
emission maximum (in CC#N): 470 nm

F[B-]1(F)n2c(cc(Br)c2Br)C(c2ccccc2)=C2C=C(Br)C(c3ccc[nH]3)=[N+]21
emission maximum (in ClC(Cl)Cl): 642 nm

CSc1ccc(/C=C/c2ccncn2)cc1
emission maximum (in ClCCl): 435 nm

CCC(CC)n1c2ccccc2c2cc3c(cc21)c1ccccc1n3C(CC)CC
emission maximum (in ClC(Cl)Cl): 423 nm

C(=C\c1ccc(N(c2ccccc2)c2ccccc2)cc1)/c1ccccc1
emission maximum (in CC#N): 455 nm | emission maximum (in CCCCCC): 395 nm

CCCCCCOc1cc(N(CC)CC)ccc1/C=C(\C#N)c1ccc(/C=C/C(=C(C#N)C#N)c2ccc3c(c2)c2ccccc2n3CC)s1
emission maximum (in ClCCl): 742 nm

CC(C)(C)c1ccc(N(c2ccc(C(C)(C)C)cc2)c2ccc3c(N(c4ccc(C(C)(C)C)cc4)c4ccc(C(C)(C)C)cc4)cc4c5cc(N(c6ccc(C(C)(C)C)cc6)c6ccc(C(C)(C)C)cc6)ccc5c(N(c5ccc(C(C)(C)C)cc5)c5ccc(C(C)(C)C)cc5)cc4c3c2)cc1
emission maximum (in CC#N): 470 nm | emission maximum (in CCCCCC): 456 nm | emission maximum (in ClCCl): 471 nm

CC(C)[Si](C#Cc1c2ccccc2c(C#C[Si](C(C)C)(C(C)C)C(C)C)c2nc3c(nc12)C1c2ccccc2C3c2ccccc21)(C(C)C)C(C)C
emission maximum (in CCCCCC): 464 nm

CCC1(CC)c2cc(-c3ccc4c(c3)C(CC)(CC)c3cc(C(C)(C)C)ccc3-4)ccc2-c2ccc(-c3ccc4c(c3)C(CC)(CC)c3cc(C(C)(C)C)ccc3-4)cc21
emission maximum (in CO): 385.59 nm

CC1=[N+]2C(=C(c3ccc(N(c4ccccc4)c4ccccc4)cc3)c3ccc(C)n3[B-]2(F)F)C=C1c1cc2n(c1)[B-](F)(F)[N+]1=CC=CC1=C2c1c(C)cc(C)cc1C
emission maximum (in C1CCCCC1): 645 nm | emission maximum (in CCOC(C)=O): 680 nm

COc1cc(C2=c3c(c4ccc(C(C)(C)C)cc4c4c(OC)c(OC)c(OC)cc34)=[N+]3C2=Nc2c(-c4cc(OC)c(OC)c(OC)c4)c4c5cc(OC)c(OC)c(OC)c5c5cc(C(C)(C)C)ccc5c4n2[B-]3(F)F)cc(OC)c1OC
emission maximum (in Cc1ccccc1): 820 nm

c1cc2c3c(cccc3c1)C(N1CCOCCOCCOCCOCC1)=N2
emission maximum (in CC#N): 590 nm

O=C1Nc2ccccc2/C1=C/C(=O)c1ccc(Cl)cc1
emission maximum (in C1CCCCC1): 382 nm | emission maximum (in C1COCCO1): 394 nm | emission maximum (in CC#N): 398 nm | emission maximum (in CC(C)(C)O): 405 nm | emission maximum (in CC(C)O): 404 nm | emission maximum (in CCCCCC): 382 nm | emission maximum (in CCCCO): 405 nm | emission maximum (in CCOC(C)=O): 395 nm | emission maximum (in CN(C)C=O): 398 nm | emission maximum (in CO): 406 nm | emission maximum (in ClCCl): 394 nm | emission maximum (in O): 410 nm

CCCCC1(CCCC)c2ccccc2-c2ccc(-c3c4c(nc5ccccc35)-c3cc5c(cc3CC4)-c3nc4ccccc4c(-c4ccc6c(c4)C(CCCC)(CCCC)c4ccccc4-6)c3CC5)cc21
emission maximum (in ClC(Cl)Cl): 385 nm

Cc1ccc(-n2c(-c3cccc4cc[nH]c34)nc3c4ccccc4c4ccccc4c32)cc1
emission maximum (in Cc1ccccc1): 377 nm

COc1ccc(-c2cc(N3CCCCC3)c(C#N)c3c2-c2cccc4cccc-3c24)cc1
emission maximum (in O): 552 nm

F[B-]12Oc3ccccc3-c3c4[n+]5c(c([n+]31)-c1ccccc1O2)-c1ccccc1O[B-]5(F)Oc1ccccc1-4
emission maximum (in ClCCl): 623 nm

Cc1cc(C)nc(N)n1
emission maximum (in CCO): 337 nm | emission maximum (in CO): 339 nm | emission maximum (in O): 342 nm

COc1cccc(-n2c(-c3ccc(O)cc3)nc(C)c2C)c1
emission maximum (in C1COCCO1): 368 nm | emission maximum (in CC#N): 364 nm | emission maximum (in CCCCCC): 370 nm | emission maximum (in CCCCO): 371 nm | emission maximum (in CCO): 372 nm | emission maximum (in CCOC(C)=O): 368 nm | emission maximum (in CO): 369 nm | emission maximum (in ClC(Cl)Cl): 372 nm | emission maximum (in ClCCl): 369 nm | emission maximum (in c1ccccc1): 371 nm

CN(C)c1ccc(-n2c(-c3ccncc3)nc3nccnc32)cc1
emission maximum (in CC#N): 405 nm

CCCCCCOc1ccc(N(c2ccc(OCCCCCC)cc2)c2ccc(-c3sc(-c4ccc(N(c5ccc(OCCCCCC)cc5)c5ccc(OCCCCCC)cc5)cc4)c4nc(-c5ccccc5)c(-c5ccccc5)nc34)cc2)cc1
emission maximum (in C1CCOC1): 770 nm | emission maximum (in CC(C)=O): 793 nm | emission maximum (in CCOC(C)=O): 768 nm | emission maximum (in CCOCC): 751 nm | emission maximum (in CN(C)C=O): 806 nm | emission maximum (in Cc1ccccc1): 748 nm | emission maximum (in ClC(Cl)Cl): 777 nm | emission maximum (in ClCCl): 793 nm

CCCCCCCc1ccc(C2=[N+]3C(=C4c5cc(OCC(CC)CC)c(-c6ccc(CCCCCCC)o6)n5[B-](F)(F)[n+]5nnn(c54)[B-]3(F)F)C=C2OCC(CC)CC)o1
emission maximum (in C1CCOC1): 829 nm | emission maximum (in ClCCl): 835 nm

COc1cccc2cc(-c3ccc([N+](=O)[O-])cc3)c(=O)oc12
emission maximum (in C1CCOC1): 373 nm | emission maximum (in CC#N): 363 nm | emission maximum (in CS(C)=O): 385 nm | emission maximum (in ClC(Cl)Cl): 377 nm

Cc1cc(N2c3ccccc3C(C)(C)c3ccccc32)ccc1-c1ncnc(-c2ccc(N3c4ccccc4C(C)(C)c4ccccc43)cc2C)c1C
emission maximum (in Cc1ccccc1): 454 nm | emission maximum (in O=P(c1ccccc1)(c1ccccc1)c1ccccc1Oc1ccccc1P(=O)(c1ccccc1)c1ccccc1): 454 nm

CCOC(=O)c1c(-c2cc3c(ccc4ccccc43)oc2=O)nn(-c2cccc(C)c2)c1C(=O)OCC
emission maximum (in ClCCl): 440 nm

N#CC(C#N)=Cc1ccc2c(c1)[nH]c1c3ccccc3sc21
emission maximum (in C1CCOC1): 547 nm | emission maximum (in CN(C)C=O): 581 nm | emission maximum (in Cc1ccccc1): 518 nm | emission maximum (in ClCCl): 544 nm

CCN(CC)c1ccc2c(c1)oc(=O)c1c(-c3ccccc3C(=O)O)c3ccc(=[N+](CC)CC)cc-3oc12
emission maximum (in CCO): 637 nm | emission maximum (in ClC(Cl)Cl): 636 nm | emission maximum (in O): 646 nm

CCOC(=O)c1ccccc1-c1c2ccc(=[N+](CC)CC)cc-2oc2c1c(=O)oc1cc(N(CC)CC)ccc12
emission maximum (in CCO): 642 nm | emission maximum (in ClC(Cl)Cl): 640 nm | emission maximum (in O): 652 nm
